{
  "source": "patent US6630467B2",
  "about": "“Pyridone-fused azabicyclic- or cytisine derivatives, their preparation and their use in addiction therapy” (Pfizer Inc., priority 1996, dated 2003)",
  "origin": "cited, not measured here",
  "settings": "in vivo",
  "data": [
    {"smiles": "O=c1cccc2n1CC1CNCC2C1", "note": "(centres unmarked) [cytisine, 1,2,3,4,5,6-hexahydro-1,5-methano-pyrido[1,2-a][1,5]diazocin-8-one]", "values": [
      {"measurement": "penetration of the brain barrier", "result": "inability to penetrate the brain barrier"},
      {"measurement": "potency", "result": "not high"}
    ]}
  ]
}
